Molecules are shown by their SMILES. Counter-ions that a name gives are not always drawn.

Experiment [1] has as its system Drosophila suzukii antennae. The experiment in a line: Coupled GC-EAD of bread dough headspace volatiles on SWD antennae. Particulars: adult female SWD antennae; adsorbent extract of bread dough; authentic standards 10 ng/μl. The procedure:
Adsorbent Sampling from Bread Dough: The bread dough bait consisted of whole-wheat flour (17.25 g), sugar (2 g), dry active bread yeast (0.325 g), apple cider vinegar (1 ml), and water (25 ml) (Cha, D. H., et al., J. Econ. Entomol., 111: 645-652 (2018a)). Headspace volatiles were collected from 10 g bread dough ball placed in a screened specimen cup (130 ml) by using 2.41 closed volatile collection chambers (ARS, Inc., Gainesville, Fla.) with one air inlet adapter (7 mm ID) on the top and an outlet adapter (7 mm ID) on the bottom wall. Clean air from a filtering and delivery system (ARS Inc., Gainesville, Fla.) was pushed into the chamber at 0.7 L/min through the top inlet port, and volatiles from the dough were pushed out through volatile traps (activated charcoal adsorbent filters, ORBO™32-small, Supelco Inc., Bellefonte, Pa.) on the bottom of the chamber. An additional ORBO™ filter was used to ensure that no breakthrough occurred. For each sample of dough (2 dough samples total), adsorbent collections were made over a 2-day period at room temperature using the same volatile trap. Volatiles were eluted with 600 μl methylene chloride every 24 h from the filters of a given dough sample and combined across the total of the collecting days (from 2 dough samples). The combined extract was kept at −20° C. and subjected to as chromatography-electroantennographic detection (GC-EAD) and gas chromatography-mass spectrometry (GC-MS) analyses.
Coupled Gas Chromatographic-Electroantennographic Detection (GC-EAD): Coupled GC-EAD analysis was performed as described previously (Cha, D. H., J. Chem. Ecol., 34: 1180-1189 (2008); Cha, D. H., et al., J. Chem. Ecol., 38: 1419-1431 (2012)) using a Hewlett Packard 5890 Series II gas chromatograph equipped with either a non-polar DB-5 ms capillary column (30 m×0.25 mm ID, 0.25 μm film thickness; Agilent Technologies, Wilmington, Del.) or polar DB-WAXetr capillary column (30 m×0.25 mm ID, 0.25 μm film thickness; Agilent Technologies, Wilmington, Del.) in the splitless mode with 1 min sampling time. The oven temperature was programmed at 40° C. for 5 min, then increased by 15° C./min to 250° C., and held for 5 min. Injector and detector temperatures were set at 250° C. Nitrogen gas was the carrier at a flow of 2 ml/min. The column effluent was split 1:1 in the oven via a “Y” glass splitter (Supelco). One arm of the splitter led to the flame ionization detector (FID) (250° C.) and the other to the heated EAD port (250° C.). Whole head preparations were made of individual flies, age 5-9 day, for GC-EAD analysis (Cha et al. 2012). The head was separated from the body and its antennae positioned between two gold wire electrodes immersed in saline filled (Drosophila ringer solution; 46 mmol NaCl, 182 mmol KCl, 3 mmol CaCl2, and 10 mmol Tris HCl at pH 7.2) micropipettes in an acrylic holder. The antennal holder was placed inside a humidified condenser and maintained at 5° C. The output signal from the antenna was amplified by a customized high input impedance DC amplifier and recorded on an HP 3390A integrator.
Chemical Analysis: GC-MS was carried out with an Agilent 5975MS coupled with a Agilent 6890GC equipped with either a DB-5 ms capillary column (30 m×0.25 mm ID, 0.25 μm film thickness; Agilent Technologies, Wilmington, Del.) or DB-WAXetr capillary column (30 m×0.25 mm ID, 0.25 μm film thickness; Agilent Technologies, Wilmington, Del.). Helium was the carrier gas (1.0 ml/min constant flow). The GC temperature program was the same as used for the GC-EAD analyses. The MS transfer-line was held at 260° C., the MS source at 230° C., and the MS quad at 150° C. Mass spectra were taken in EI mode (at 70 eV) in the range from 40 m/z to 350 m/z with a scanning rate of 4.58 scan/s. GC-MS data were processed with the MDS-Chemstation software (Agilent Technologies). […]

A further experiment deals with SWD. Particulars: 1-octen-3-ol released near ripe raspberries; cited from earlier work.

Regarding `CC(C)CCOC=O` [isoamyl formate], the “GC-EAD activity (antennal response)” value in experiment [1] is on record as “active”.

Turning to `CC(=O)C(C)O` (stereo not drawn) [acetoin], the “GC-EAD activity (antennal response)” value in experiment [1] was “active”.

On to `CCCCCCCO` [1-heptanol], for which the “GC-EAD activity (antennal response)” value in experiment [1] is recorded as “active”.

Regarding `CCC(C)COC(C)=O` (stereo not drawn) [2-methylbutyl acetate], in experiment [1], the “GC-EAD activity (antennal response)” value is given as “active”.

`CC(=O)OCCC(C)C` [isoamyl acetate]: the “GC-EAD activity (antennal response)” value in experiment [1] is given as “active”.

Regarding `C=CC(O)CCCCC` (stereo not drawn) [1-octen-3-ol, reference compound], the “GC-EAD activity (antennal response)” value in experiment [1] is “active”. Also, the “effect on infestation of ripe raspberries by SWD” value with SWD was “significantly reduced infestation”.

Consider `CCCCCCCCC=O` [nonanal], for which, in experiment [1], the “GC-EAD activity (antennal response)” value is “active”.

With `CCCCCCCC(C)=O` [2-nonanone], the “GC-EAD activity (antennal response)” value in experiment [1] is “active”.

For `CCCCCCO` [1-hexanol], in experiment [1], the “GC-EAD activity (antennal response)” value was “active”.

Consider `CC(O)C(C)O` (stereo not drawn) [2,3-butanediol], for which the “GC-EAD activity (antennal response)” value in experiment [1] is “active”.

Take `OCCc1ccccc1` [2-phenylethanol]: the “GC-EAD activity (antennal response)” value in experiment [1] is “active”.

Take `CCCCCO` [1-pentanol]: the “GC-EAD activity (antennal response)” value in experiment [1] was “active”.

With `CCCCCCCC(=O)OCC` [ethyl octanoate], the “GC-EAD activity (antennal response)” value in experiment [1] was “active”.

Turning to `CCCCCOC(C)=O` [pentyl acetate], the “GC-EAD activity (antennal response)” value in experiment [1] is on record as “active”.

The record behind these values is patent publication US20210251228A1, “METHODS FOR REPELLING DROSOPHILA SPECIES USING 2-PENTYLFURAN” (The United States of America, as represented by the …, priority 2020, published 2021).
